What all share (assay type): functional
Holding throughout (settings): 120 h

The subject of test [1] is Tetranychus urticae. Nature of the test: Acaricidal activity against Tetranychus urticae (two-spotted spider mite) in kidney bean leaf assessed as mortality at 3.1 ppm at 25 degC measured after 5 days.
The subject of test [2] is Tetranychus urticae. In words: Acaricidal activity against Tetranychus urticae (two-spotted spider mite) in kidney bean leaf assessed as mortality at 12.5 ppm at 25 degC measured after 5 days.
Test [3] has as its system Tetranychus urticae. In words: Acaricidal activity against Tetranychus urticae (two-spotted spider mite) in kidney bean leaf assessed as mortality at 200 ppm at 25 degC measured after 5 days.
Test [4] has as its system Tetranychus urticae. In words: Acaricidal activity against Tetranychus urticae (two-spotted spider mite) in kidney bean leaf assessed as mortality at 50 ppm at 25 degC measured after 5 days.
Test [5] relates to Tetranychus urticae. In words: Acaricidal activity against Tetranychus urticae (two-spotted spider mite) in kidney bean leaf assessed as mortality at 500 ppm at 25 degC measured after 5 days.

Structures are written as SMILES.

For orientation: mortality means the percentage killed. In the case of `Cc1cc(C(=O)NCc2ccc(C(C)(C)C)cc2)n(C)n1`, the mortality at 3.1 ppm in the test on Tetranychus urticae [1] worked out at 0%. Besides, the mortality at 12.5 ppm in the test on Tetranychus urticae [2] was 30%. In addition, the mortality at 200 ppm in the test on Tetranychus urticae [3] is 100%. Also, the mortality at 50 ppm with Tetranychus urticae [4] worked out at 100%. Also, the mortality at 500 ppm in the test on Tetranychus urticae [5] is 100%.

On to `Cc1ncsc1C(=O)NCc1ccc(C(C)(C)C)cc1`, for which, in the test on Tetranychus urticae [1], the mortality at 3.1 ppm amounted to 0%. Moreover, the mortality at 12.5 ppm in the test with Tetranychus urticae [2] came out at 0%. Further, the mortality at 200 ppm in the test with Tetranychus urticae [3] is 0%. Further, the mortality at 50 ppm in the test on Tetranychus urticae [4] worked out at 0%. Further, the mortality at 500 ppm in the test on Tetranychus urticae [5] came to 30%.

Take `Cc1nc(C)c(C(=O)NCc2ccc(C(C)(C)C)cc2)s1`: the mortality at 3.1 ppm with Tetranychus urticae [1] was determined as 0%. Besides, the mortality at 12.5 ppm with Tetranychus urticae [2] is 0%. The mortality at 200 ppm in the test on Tetranychus urticae [3] came out at 100%. In addition, in the test on Tetranychus urticae [4], the mortality at 50 ppm stood at 100%. Moreover, the mortality at 500 ppm with Tetranychus urticae [5] was 100%.

Consider `CCc1cc(C(=O)NCc2ccc(C(C)(C)C)cc2)nn1C`, for which, in the test on Tetranychus urticae [1], the mortality at 3.1 ppm came to 0%. For the same molecule, the mortality at 12.5 ppm in the test with Tetranychus urticae [2] came out at 0%. For the same molecule, the mortality at 200 ppm in the test on Tetranychus urticae [3] came out at 0%. The mortality at 50 ppm in the test with Tetranychus urticae [4] is 0%. Besides, the mortality at 500 ppm in the test with Tetranychus urticae [5] was 0%.

For the molecule `CCc1nc(C)c(C(=O)N(C)Cc2ccc(C(C)(C)C)cc2)s1`, in the test on Tetranychus urticae [1], the mortality at 3.1 ppm worked out at 0%. Besides, in the test with Tetranychus urticae [2], the mortality at 12.5 ppm was found to be 30%. Moreover, the mortality at 200 ppm with Tetranychus urticae [3] is 100%. The mortality at 50 ppm with Tetranychus urticae [4] came out at 100%. Moreover, in the test with Tetranychus urticae [5], the mortality at 500 ppm came out at 100%.

As to `CCn1ncc(C(=O)NCc2ccc(C(C)(C)C)cc2)c1C`, the mortality at 3.1 ppm with Tetranychus urticae [1] came to 0%. Besides, the mortality at 12.5 ppm in the test with Tetranychus urticae [2] was found to be 0%. Further, the mortality at 200 ppm with Tetranychus urticae [3] amounted to 0%. Moreover, the mortality at 50 ppm in the test on Tetranychus urticae [4] amounted to 0%. In addition, the mortality at 500 ppm in the test with Tetranychus urticae [5] was found to be 0%.

With `CCc1cc(C(=O)NCc2ccc(C(C)(C)C)cc2)n(C)n1`, in the test with Tetranychus urticae [1], the mortality at 3.1 ppm was determined as 0%. For the same molecule, the mortality at 12.5 ppm in the test with Tetranychus urticae [2] turned out to be 100%. Moreover, the mortality at 200 ppm in the test on Tetranychus urticae [3] came to 100%. The mortality at 50 ppm with Tetranychus urticae [4] came to 100%. Also, in the test with Tetranychus urticae [5], the mortality at 500 ppm was determined as 100%.

For `Cc1nn(C)cc1C(=O)NCc1ccc(C(C)(C)C)cc1`, the mortality at 3.1 ppm in the test with Tetranychus urticae [1] amounted to 0%. Moreover, the mortality at 12.5 ppm with Tetranychus urticae [2] was 0%. In the test with Tetranychus urticae [3], the mortality at 200 ppm worked out at 80%. Besides, the mortality at 50 ppm in the test on Tetranychus urticae [4] came to 0%. In the test with Tetranychus urticae [5], the mortality at 500 ppm was 100%.

On to `CCn1cc(C(=O)NCc2ccc(C(C)(C)C)cc2)c(C)n1`, for which the mortality at 3.1 ppm in the test on Tetranychus urticae [1] turned out to be 0%. Further, in the test on Tetranychus urticae [2], the mortality at 12.5 ppm was determined as 30%. Besides, the mortality at 200 ppm in the test with Tetranychus urticae [3] came out at 100%. In addition, the mortality at 50 ppm with Tetranychus urticae [4] is 100%. Besides, the mortality at 500 ppm in the test on Tetranychus urticae [5] came to 100%.

On to `CCn1nc(C)cc1C(=O)NCc1ccc(C(C)(C)C)cc1`, for which, in the test on Tetranychus urticae [1], the mortality at 3.1 ppm amounted to 0%. Moreover, the mortality at 12.5 ppm in the test with Tetranychus urticae [2] worked out at 0%. In the test on Tetranychus urticae [3], the mortality at 200 ppm stood at 0%. Further, in the test on Tetranychus urticae [4], the mortality at 50 ppm worked out at 0%. Moreover, in the test with Tetranychus urticae [5], the mortality at 500 ppm amounted to 0%.

The values are drawn from ChEMBL document CHEMBL3046446, “Structure and Acaricidal Activity of Pyrazolecarboxamides and Thiazole-5-carboxamides” (1994).
